The assay deals with T1, human wildtype CFTR (Homo sapiens, UniProt P13569).
T1 construct: expressed in transfected cells; host or cells: Fischer rat thyroid (FRT) cells
The assay is described as follows: Fluorescence platereader assay of CFTR-mediated iodide influx (YFP quenching) in FRT cells. Conditions: for inhibition at 5 µM / inhibition at 25 µM: FRT; for IC50: apparent IC50 from concentration-inhibition data, fluorescence platereader assay. It is filed as cell-based. As for the experimental part:
A. Cell lines and compounds—Fischer rat thyroid (FRT) cells co-expressing human wildtype CFTR and the halide indicator YFP-H148Q/1152L were generated as described (see, e.g., Ma et al., J. Clin. Invest. 110:1651-1658 (2002)). Cells were plated in 96-well black-walled microplates (Corning Costar) at a density of 20,000 cells per well in Coon's modified F12 medium supplemented with 5% fetal calf serum, 2 mM L-glutamine, 100 U/mL penicillin, and 100 μg/ml streptomycin. Assays were performed at 48 h after plating the cells when the cells were just confluent. For some experiments, measurements were made using T84 human intestinal epithelial cells and for other experiments, measurements were obtained using primary cultures of human bronchial epithelial cells, which were obtained and grown essentially as previously described (see, e.g., 3 and 27).
B. Compound Screening—Assays were performed using an automated screening platform (Beckman) equipped with FLUOStar fluorescence platereaders (BMG Lab Technologies, Offenburg, Germany) as described (see Ma et al., supra). Each well of a 96-well plate containing FRT cells was washed 3 times in PBS (300 μL/wash), leaving 50 μL PBS. […] After 15 min, 96-well plates were transferred to a plate reader for fluorescence assay. Each well was assayed individually for CFTR-mediated iodide influx by recording fluorescence continuously (200 ms per point) for 2 s (baseline) and then for 10 s after rapid addition of 160 μL of isosmolar PBS in which 137 mM chloride was replaced by iodide. The initial rate of iodide influx was computed from fluorescence data by non-linear regression.
Collections of synthetic and natural compounds were screened according to the screening procedures described in Example 2. A cell-based fluorescence assay was used in which CFTR inhibitors were identified by reduced iodide influx in FRT cells co-expressing human CFTR and a YFP halide sensor. CFTR was maximally activated by a mixture of agonists having different activating mechanisms. Inhibition of iodide influx was observed as reduced YFP fluorescence quenching in response to rapid iodide addition to each well of 96-well plates. […]

Where [1] appears, read: Table 2, screening, 5 μM, read-out: % Inhibition at 5 μM.
The mark [2] stands for this setting: Table 2, screening, 25 μM, read-out: % Inhibition at 25 μM.
The mark [3] stands for this setting: read-out: % inhibition at 25/5 μM (5 μM value), Table 1, 5 μM compound.

Where two headings read alike, the source gives them in different places.

T1 sequence (P13569 whole entry): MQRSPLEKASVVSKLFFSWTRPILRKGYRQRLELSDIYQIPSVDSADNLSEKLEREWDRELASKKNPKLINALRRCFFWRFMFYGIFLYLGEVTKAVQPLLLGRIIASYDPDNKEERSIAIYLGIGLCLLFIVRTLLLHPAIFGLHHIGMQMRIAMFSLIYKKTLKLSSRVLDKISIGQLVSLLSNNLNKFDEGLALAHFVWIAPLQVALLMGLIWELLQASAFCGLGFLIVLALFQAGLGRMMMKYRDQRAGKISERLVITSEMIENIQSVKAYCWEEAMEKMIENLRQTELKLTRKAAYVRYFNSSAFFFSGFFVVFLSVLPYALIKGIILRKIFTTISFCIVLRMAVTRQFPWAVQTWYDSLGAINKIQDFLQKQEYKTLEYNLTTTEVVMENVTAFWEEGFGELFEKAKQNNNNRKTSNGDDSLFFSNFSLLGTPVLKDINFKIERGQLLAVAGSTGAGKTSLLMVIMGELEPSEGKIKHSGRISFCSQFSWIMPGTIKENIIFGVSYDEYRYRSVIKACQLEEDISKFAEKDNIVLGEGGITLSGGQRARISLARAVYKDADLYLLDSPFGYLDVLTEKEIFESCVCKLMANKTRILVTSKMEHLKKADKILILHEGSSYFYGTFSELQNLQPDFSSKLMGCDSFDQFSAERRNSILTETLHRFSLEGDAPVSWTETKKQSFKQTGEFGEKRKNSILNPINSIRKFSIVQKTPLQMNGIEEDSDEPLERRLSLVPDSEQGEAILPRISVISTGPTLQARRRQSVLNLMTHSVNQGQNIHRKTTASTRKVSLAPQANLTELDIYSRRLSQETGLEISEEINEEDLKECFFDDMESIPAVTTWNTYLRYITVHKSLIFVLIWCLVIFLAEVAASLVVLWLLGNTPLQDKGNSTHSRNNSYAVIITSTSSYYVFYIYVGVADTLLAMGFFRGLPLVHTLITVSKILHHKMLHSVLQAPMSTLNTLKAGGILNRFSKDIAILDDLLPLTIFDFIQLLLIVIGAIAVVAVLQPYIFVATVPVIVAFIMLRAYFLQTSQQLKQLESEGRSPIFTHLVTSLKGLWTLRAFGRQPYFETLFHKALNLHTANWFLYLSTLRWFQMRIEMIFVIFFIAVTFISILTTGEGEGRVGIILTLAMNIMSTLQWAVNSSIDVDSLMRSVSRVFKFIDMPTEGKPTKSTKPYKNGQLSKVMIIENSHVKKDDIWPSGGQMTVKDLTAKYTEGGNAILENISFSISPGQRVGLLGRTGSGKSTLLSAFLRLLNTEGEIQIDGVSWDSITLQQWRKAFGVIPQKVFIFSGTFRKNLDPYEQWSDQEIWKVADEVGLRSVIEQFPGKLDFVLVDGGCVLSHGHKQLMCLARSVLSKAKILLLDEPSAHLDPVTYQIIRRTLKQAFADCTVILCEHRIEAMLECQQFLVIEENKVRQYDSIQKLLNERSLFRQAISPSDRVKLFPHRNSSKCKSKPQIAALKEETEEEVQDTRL

Take `Cc1cccc(-c2c3c(=O)n(C)c(=O)n(C)c3c3n2-c2ccccc2NC3c2cccc(O)c2)c1` (stereo not drawn) [PPQ-228, 7,9-Dimethyl-11-(3-methylphenyl)-6-(3-hydroxyphenyl)-5,6-dihydro-pyrimido[4′,5′-3,4]pyrrolo[1,2-a]quinoxaline-8,10-(7H,9H)-dione]: under setting [1], the inhibition at 5 µM is 30%. For the same compound, the inhibition at 25 µM under setting [2] was determined as 83%.

With `Cc1cc2c(cc1C)-n1c(-c3ccccc3F)c3c(=O)n(C)c(=O)n(C)c3c1C(c1ccccc1F)N2` (stereo not drawn), the inhibition at 5 µM under setting [1] was determined as 23%. Under setting [2], the inhibition at 25 µM worked out at 35%.

The IC50 is the concentration that inhibits the measured activity by half. For `Cc1ccccc1-c1c2c(=O)n(C)c(=O)n(C)c2c2n1-c1ccccc1NC2c1ccccc1` (stereo not drawn) [PPQ-218, 7,9-Dimethyl-11-(2-methylphenyl)-6-phenyl-5,6-dihydro-pyrimido[4′,5′-3,4]pyrrolo[1,2-a]quinoxaline-8,10-(7H,9H)-dione], the 50% inhibitory concentration (IC50) was found to be 5000 nM. Moreover, under setting [1], the inhibition at 5 µM is 41%. Further, the inhibition at 25 µM under setting [2] was found to be 94%.

Consider `COc1cccc(C2Nc3ccccc3-n3c(-c4cccc(C)c4)c4c(=O)n(C)c(=O)n(C)c4c32)c1O` (stereo not drawn), for which, under setting [1], the inhibition at 5 µM is below 10%. For the same compound, under setting [2], the inhibition at 25 µM was 31%.

Turning to `COc1ccc(C2Nc3ccccc3-n3c(-c4ccccc4F)c4c(=O)n(C)c(=O)n(C)c4c32)cc1` (stereo not drawn), the inhibition at 5 µM under setting [1] was below 10%. Moreover, the inhibition at 25 µM under setting [2] came out at 33%.

For `COc1cccc(C2Nc3ccccc3-n3c(-c4cccc(C)c4)c4c(=O)n(C)c(=O)n(C)c4c32)c1` (stereo not drawn) [PPQ-210, 7,9-Dimethyl-11-(3-methylphenyl)-6-(3-methoxyphenyl)-5,6-dihydro-pyrimido[4′,5′-3,4]pyrrolo[1,2-a]quinoxaline-8,10-(7H,9H)-dione], the IC50 came out at 1700 nM. Also, under setting [3], the inhibition at 5 µM came out at 73%. Also, the inhibition at 5 µM under setting [1] came to 73%. Besides, the inhibition at 25 µM under setting [2] was above 95%.

In the case of `Cc1ccccc1-c1c2c(=O)n(C)c(=O)n(C)c2c2n1-c1ccccc1NC2c1cccc(O)c1` (stereo not drawn) [PPQ-242, 7,9-Dimethyl-11-(2-methylphenyl)-6-(3-hydroxyphenyl)-5,6-dihydro-pyrimido[4′,5′-3,4]pyrrolo[1,2-a]quinoxaline-8,10-(7H,9H)-dione], the inhibition at 5 µM under setting [1] came out at 15%. For the same compound, the inhibition at 25 µM under setting [2] is 74%.

As to `COc1ccc(-c2c3c(=O)n(C)c(=O)n(C)c3c3n2-c2ccccc2NC3c2cccc(C)c2)cc1` (stereo not drawn), the inhibition at 5 µM under setting [1] was below 10%. Besides, the inhibition at 25 µM under setting [2] worked out at 35%.

With `COc1ccc(-c2c3c(=O)n(C)c(=O)n(C)c3c3n2-c2ccccc2NC3c2ccccc2)cc1` (stereo not drawn), the inhibition at 5 µM under setting [1] was below 10%. Also, the inhibition at 25 µM under setting [2] was 39%.

Regarding `Cc1cccc(-c2c3c(=O)n(C)c(=O)n(C)c3c3n2-c2ccccc2NC3c2ccco2)c1` (stereo not drawn) [PPQ-106, 7,9-Dimethyl-11-(3-methylphenyl)-6-(furan-2-yl)-5,6-dihydro-pyrimido[4′,5′-3,4]pyrrolo[1,2-a]quinoxaline-8,10-(7H,9H)-dione], the inhibition at 5 µM under setting [1] was found to be 49%. The inhibition at 25 µM under setting [2] is 96%.

As to `Cc1ccccc1-c1c2c(=O)n(C)c(=O)n(C)c2c2n1-c1ccccc1NC2c1ccc(C#N)cc1` (stereo not drawn), the inhibition at 5 µM under setting [1] is below 10%. The inhibition at 25 µM under setting [2] stood at 45%.

Take `COc1cc(C2Nc3ccccc3-n3c(-c4ccccc4F)c4c(=O)n(C)c(=O)n(C)c4c32)ccc1O` (stereo not drawn) [PPQ-251, 7,9-Dimethyl-11-(2-fluorophenyl)-6-(3-methoxy-4-hydroxyphenyl)-5,6-dihydro-pyrimido[4′,5′-3,4]pyrrolo[1,2-a]quinoxaline-8,10-(7H,9H )-dione]: under setting [1], the inhibition at 5 µM came to 13%. For the same compound, the inhibition at 25 µM under setting [2] worked out at 62%.

For the compound `Cn1c(=O)c2c(-c3ccccc3)n3c(c2n(C)c1=O)C(c1ccc2c(c1)OCO2)Nc1ccccc1-3` (stereo not drawn) [PPQ-301, 7,9-Dimethyl-11-phenyl-6-(1,3-benzodioxol-5-yl)-5,6-dihydro-pyrimido[4′,5′-3,4]pyrrolo[1,2-a]quinoxaline-8,10-(7H,9H)-dione], under setting [1], the inhibition at 5 µM turned out to be 28%. Besides, under setting [2], the inhibition at 25 µM was 58%.

Turning to `Cc1cccc(-c2c3c(=O)n(C)c(=O)n(C)c3c3n2-c2ccccc2NC3c2ccccc2F)c1` (stereo not drawn) [PPQ-215, 7,9-Dimethyl-11-(3-methylphenyl)-6-(2-fluorophenyl)-5,6-dihydro-pyrimido[4′,5′-3,4]pyrrolo[1,2-a]quinoxaline-8,10-(7H,9H)-dione], the concentration for half-maximal inhibition (IC50) is 2500 nM. Further, under setting [3], the inhibition at 5 µM was found to be 67%. The inhibition at 25 µM (read-out: % inhibition at 25/5 μM (25 μM value), Table 1, 25 μM compound) amounted to 80%. Further, the inhibition at 5 µM under setting [1] came to 67%. Also, under setting [2], the inhibition at 25 µM is 80%.

Take `Cc1ccc(C2Nc3ccccc3-n3c(-c4ccccc4F)c4c(=O)n(C)c(=O)n(C)c4c32)cc1` (stereo not drawn) [PPQ-237, 7,9-Dimethyl-11-(2-fluorophenyl)-6-(4-methylphenyl)-5,6-dihydro-pyrimido[4′,5′-3,4]pyrrolo[1,2-a]quinoxaline-8,10-(7H,9H)-dione]: under setting [1], the inhibition at 5 µM turned out to be 20%. In addition, the inhibition at 25 µM under setting [2] is 58%.

`Cn1c(=O)c2c(-c3ccccc3F)n3c(c2n(C)c1=O)C(c1ccc(O)cc1O)Nc1ccccc1-3` (stereo not drawn): the inhibition at 5 µM under setting [1] is below 10%. Besides, the inhibition at 25 µM under setting [2] was 36%.

Turning to `COc1ccc(O)c(C2Nc3ccccc3-n3c(-c4ccccc4)c4c(=O)n(C)c(=O)n(C)c4c32)c1` (stereo not drawn), the inhibition at 5 µM under setting [1] was below 10%. Under setting [2], the inhibition at 25 µM was 33%.

`COc1ccc(O)c(C2Nc3ccccc3-n3c(-c4cccc(C)c4)c4c(=O)n(C)c(=O)n(C)c4c32)c1` (stereo not drawn) [PPQ-246, 7,9-Dimethyl-11-(3-methylphenyl)-6-(2-hydroxy-5-methoxylphenyl)-5,6-dihydro-pyrimido[4′,5′-3,4]pyrrolo[1,2-a]quinoxaline-8,10-(7H,9H)-dione]: the inhibition at 5 µM under setting [1] was below 10%. Moreover, the inhibition at 25 µM under setting [2] stood at 50%.

In the case of `Cc1ccc(C2Nc3ccccc3-n3c(-c4ccc(Cl)cc4)c4c(=O)n(C)c(=O)n(C)c4c32)o1` (stereo not drawn) [PPQ-111, 7,9-Dimethyl-11-(4-cholophenyl)-6-(5-methylfuran-2-yl)-5,6-dihydro-pyrimido[4′,5′-3,4]pyrrolo[1,2-a]quinoxaline-8,10-(7H,9H)-dione], the inhibition at 5 µM under setting [1] stood at 31%. For the same compound, under setting [2], the inhibition at 25 µM worked out at 75%.

Consider `Cn1c(=O)c2c(-c3ccccc3)n3c(c2n(C)c1=O)C(c1ccc(O)cc1O)Nc1ccccc1-3` (stereo not drawn), for which, under setting [1], the inhibition at 5 µM is below 10%. Besides, the inhibition at 25 µM under setting [2] was found to be 35%.

Turning to `Cc1cccc(-c2c3c(=O)n(C)c(=O)n(C)c3c3n2-c2ccccc2NC3c2cccc([N+](=O)[O-])c2F)c1` (stereo not drawn) [PPQ-212, 7,9-Dimethyl-11-(3-methylphenyl)-6-(2-fluoro-3-nitrophenyl)-5,6-dihydro-pyrimido[4′,5′-3,4]pyrrolo[1,2-a]quinoxaline-8,10-(7H,9H)-dione], the IC50 is 2000 nM.

For the compound `Cc1ccc(C2Nc3ccccc3-n3c(-c4ccccc4)c4c(=O)n(C)c(=O)n(C)c4c32)cc1` (stereo not drawn), the inhibition at 5 µM under setting [1] was below 10%. Moreover, under setting [2], the inhibition at 25 µM was 38%.

In the case of `Cc1cccc(-c2c3c(=O)n(C)c(=O)n(C)c3c3n2-c2ccccc2NC3c2ccc(O)c(O)c2)c1` (stereo not drawn) [PPQ-243, 7,9-Dimethyl-11-(3-methylphenyl)-6-(3,4-dihydroxyphenyl)-5,6-dihydro-pyrimido[4′,5′-3,4]pyrrolo[1,2-a]quinoxaline-8,10-(7H,9H)-dione], under setting [1], the inhibition at 5 µM was 12%. In addition, under setting [2], the inhibition at 25 µM was determined as 72%.

`Cc1ccccc1-c1c2c(=O)n(C)c(=O)n(C)c2c2n1-c1ccccc1NC2c1ccc(O)cc1` (stereo not drawn) [PPQ-222, 7,9-Dimethyl-11-(2-methylphenyl)-6-(4-hydroxyphenyl)-5,6-dihydro-pyrimido[4′,5′-3,4]pyrrolo[1,2-a]quinoxaline-8,10-(7H,9H)-dione]: under setting [1], the inhibition at 5 µM turned out to be 32%. For the same compound, the inhibition at 25 µM under setting [2] was 84%.

`Cc1ccc(-c2c3c(=O)n(C)c(=O)n(C)c3c3n2-c2ccccc2NC3c2ccc(C)cc2O)cc1` (stereo not drawn) [PPQ-220, 7,9-Dimethyl-11-(4-methylphenyl)-6-(2-hydroxy-4-methylphenyl)-5,6-dihydro-pyrimido[4′,5′-3,4]pyrrolo[1,2-a]quinoxaline-8,10-(7H,9H)-dione]: the inhibition at 5 µM under setting [1] was below 10%. Further, the inhibition at 25 µM under setting [2] was above 95%.

Regarding `Cn1c(=O)c2c(-c3ccccc3F)n3c(c2n(C)c1=O)C(c1ccc(Cl)cc1)Nc1ccccc1-3` (stereo not drawn), the inhibition at 5 µM under setting [1] is below 10%. In addition, the inhibition at 25 µM under setting [2] is 44%.

Source of the values: patent US8609661B2, “Pyrimido-pyrrolo-quinoxalinedione inhibitors of cystic fibrosis transmembrane conductance regulator protein and uses therefor” (The Regents of the University of California, priority 2009, dated 2013).
